Legend:
Format in all cases: in vivo
[1] = tested on: oilseed rape - Brassica napus; assay: Greenhouse drought stress test on oilseed rape after spray treatment; conditions: BRSNS (oilseed rape), drought stress 26° C./18° C. (day/night) one week, 7 days recovery; 250 g of a.s./ha, spray 600 l/ha; damage vs untreated stressed plants
Experimental: (§1) Oilseed rape, maize and barley are cultivated on sandy clay under greenhouse conditions. After 2-3 weeks, after BBCH10 to BBCH13 has been reached, the plants are each treated with bixafen at application rates of from 250 g/ha and 100 g/h. The spray volume is adjusted to 600 l/ha. The plants are then exposed to drought stress by heating the test chamber to 26° C./18° C. (day/night) or cold temperature stress brought about by cooling the test chamber to 8° C./1° C. (day/night). After one week, the test chamber is readjusted to normal temperatures and the test plants are then allowed to recover for 7 days. Evaluation of the compounds tested is carried out by comparison of the treated plants with the untreated plants, each of which was exposed to the stress factors, using the formula below: [formula] EFF: efficiency (%) SWug: damage to untreated control plants SWbg: damage to treated plants

barley - Hordeum vulgare = assay: Greenhouse drought stress test on barley after spray treatment; conditions: HORVS (barley), drought stress 26° C./18° C. (day/night) one week, 7 days recovery; 100 g of a.s./ha, spray 600 l/ha; damage vs untreated stressed plants
Experimental: as §1

maize - Zea mays = assay: Greenhouse cold temperature stress test on maize after spray treatment; conditions: cold temperature stress 8° C./1° C. (day/night) one week, 7 days recovery, spray 600 l/ha, damage vs untreated stressed plants
Experimental: as §1

Q: How did the Efficiency [1] turn out when `Cn1cc(C(=O)Nc2ccc(F)cc2-c2ccc(Cl)c(Cl)c2)c(C(F)F)n1` [bixafen, N-(3′,4′-dichloro-5-fluoro-1,1′-biphenyl-2-yl)-3-(difluoromethyl)-1-methyl-1H-pyrazole-4-carboxamide] was run?
A: 15%

Q: What about the Efficiency (barley - Hordeum vulgare) of the same molecule?
A: 22%

Q: What about the Efficiency (maize - Zea mays; 100 g of a.s./ha) of the same molecule?
A: 21%

Q: What about the Efficiency (maize - Zea mays; 250 g of a.s./ha) of the same molecule?
A: 47%

Reference: patent publication US20100324101A1, “Use of Succinate Dehydrogenase Inhibitors for Increasing the Resistance of Plants or Parts of Plants to Abiotic Stress” (Bayer CropScience AG, priority 2009, published 2010)
